Measurements as given in US20150141485A1, “PROGNOSIS AND TREATMENT OF LUNG CANCER USING miRNA-135b” (NATIONAL CHENG KUNG UNIVERSITY, priority 2013, published 2015).
Blank lines part the entries; values can stand above or below the molecule they belong to.

Key:
[1] = system: CL1-5-F4 cells; assay: Real-time RT-PCR of miR-135b; type: cell-based, human; settings: 6 hours
Protocol: CL1-5-F4 cells were treated with different concentrations of TNF-α with or without BAY-117082 (5 or 10 μM) for 6 hours. Total RNA was harvested, and miR-135b expression was analyzed and analysis by real-time RT-PCR. Mean±s.d. is shown, *P<0.05; **P<0.005 by Student's t-test.
(§1) Cells were seeded at concentration of 1×10^5 for treatment with 5-aza-2′-CdR (R&D Systems INC., MN, USA) for 96 hours. For TNF-α (PeproTech, Rocky Hill. N.J.) stimulation, 1×10^6 cells were seeded for 24 hours and treated with different amounts of TNF-α for 6 hours.
(§2) Total RNA was isolated using TRIZOL reagent (Invitrogen, Carisbad, Calif.) according to the standard protocol. The mature miR-135b and endogenous control U6B were analyzed using TaqMan Micro RNA Assay (Applied Biosystems, Foster City, Calif.). Briefly, total RNA was reverse-transcribed via SuperScipt-III Reverse Transcriptase (Invitrogen, Carlsbad, Calif.). The cDNA was amplied with TaqMan 2× Universal Master Mix (Applied Biosystems), and miRNA-specific real-time PCR was performed using an ABI 7500 real-time PCR system.

[2] = system: NF-κB binding site within the miR-135b promoter; assay: Chromatin immunoprecipitation (ChIP) with anti-p65; type: cell-based; settings: 6 hours stimulation
Protocol: The cells were treated with indicated amounts of 5-aza-2′-CdR (upper panel) for 4 days or TNF-α (lower panel) for 6 hours before being subjected to chromatin immunoprecipitation (ChIP) with anti-p65 antibody and specific primers.
CL1-0 and H1299 cells were fixed with 1% formaldehyde and blocked by 125 mM glycine. The cells were resuspended in cell lysis buffer (5 mM HEPES, 85 mM KCl, 0.5% Triton X-100, 1 mM DTT, 1 mM PMSF, pH 8.0), followed by nucleic lysis buffer (50 mMTris-HCl, 10 mM EDTA, 1% SDS, 1 mM DTT, and protease inhibitor (Roche Applied Science, Mannheim, Germany)). The cell lysate was sonicated and clarified by centrifugation. The supernatant was diluted with protein G beads at 4° C. to pre-clear the solution Immunoprecipitation with anti-RelA (Abcam, Cambridge, UK) was performed at 4° C. overnight. DNA-protein complexes were than incubated with protein G agarose beads at 4° C. with constant rotation for 2 hours. Following immunoprecipitation, the beads were washed with a low-salt wash buffer, a high-salt wash buffer, a LiCl wash buffer, and, finally, a TE buffer. The immunoprecipitated complexes were eluted in a buffer containing 10 mM Tris pH 8.0, 300 mM NaCl. 5 mM EDTA, and 0.5% SDS at room temperature. The samples were then treated with proteinase K for 1 hour, followed by RNAse A. Next, the DNA was purified by phenol/chloroform extraction. […]

[3] = system: H1299 cells; assay: Real-time RT-PCR of miR-135b; type: cell-based; settings: single treatment
Protocol: Cells were treated with or without 5-aza-2′-CdR for 4 days and re-seeded for TNF-α stimulation for 6 hours. Total RNA was harvested, and miR-135b expression was analyzed. Mean±s.d. is shown, *P<0.05; **P<0.005 by Student's t-test.
as §1, §2

[4] = system: miR-135b expression; assay: Real-time RT-PCR of miR-135b after DNA demethylation; type: cell-based; settings: cancer cells treated 4 days
Protocol: Cells were treated with different doses of 5-aza-2′-CdR (5′-aza) for 4 days, and total RNA was harvested for real time RT-PCR. Data are expressed as the mean±s.d.
as §1, §2

[5] = system: LEMD1 mRNA; assay: LEMD1 mRNA expression after DNA demethylation; type: cell-based; settings: lung cancer cell lines
Protocol: as §1

[6] = system: CL1-5-F4 cells; assay: Transwell invasion assay; type: cell-based, human; settings: CL1-5-F4 cells stably expressing sponge vs control sponge
Protocol: CL1-5-F4 and Hop-62 cells were transfected with scramble (NC) of miR-135b-specific antagomir (Antago-135b) for 48 hours and the subjected to migration assays (FIG. 2d) and invasion assays (FIG. 2e) as described above. *P<0.05;**P<0.005 by Student's t-test.
CL1-5-F4 cells transfected with plasmids expressing either control or miR-135b sponges were analyzed using in vitro invasion assay. The average number of invading cells obtained in the transwell invasion assay is presented (n=3).
Transwell chambers ([…], BD Falcon, Franklin Lakes, N.J.) were coated with the appropriate amount of Matrigel (BD Biosciences, San Jose, Calif.). Next, 2.5×10^4 cells were suspended in NuSerum-containing media (Gibco BRL, Grand Island N.Y., USA), seeded in the chamber and cultured, Cells that invaded the chamber from top to bottom were fixed with methanol and stained with a solution of propidium iodine (Sigma-Aldrich, St. Louis, Mo.). The propidiumiodine-positive signal was quantified using Analytical Imaging Station software package. Each sample was assayed in triplicate.

[7] = system: CL1-5-F4 cells; assay: Lung metastasis after intravenous injection of sponge-expressing cells; type: in vivo; settings: SCID mice, i.v. sponge-producing CL1-5-F4 cells, 6 weeks, P=0.0126
Description: CL-5-F4 cells stably expressing control sponge or miR-135b sponge were intravenously injected into SCID mice (n=8). Representative pictures of murine whole lung (left) and H&E staining of lung sections (right) are presented.
Lung tumor nests in each group were examined and counted using a microscope (n=8); Mean±s.e.m. is shown,*P<0.05 by Student's t-test.
Animals were housed in a specific-pathgen-free environment in the animal facility of the Institute of Biomedical Sciences, Academia Sinica. All experimental procedures were in compliance with the Academia Sinica IACUC and Council of Agriculture Guidebook for the Care and Use of Laboratory Animals. For intravenous injections of the tumor cells, 1×10^6 cells were suspended in 0.1 mL of phosphate-buffered saline (PBS) and injected into lateral tail vein of SCID mice (10 mice per group). […] For the subcutaneous tumor assay, 1×10^6 CL1-0 cells or 2×10^5 H441 cells were subcutaneously injected in 0.1 mL of PBS into male nude mice (n=8 per group) and allowed to grow for 35 days to reach a volume of 50-200 mm^3 Control antagomir (Scramble) or anti-miR-135b antagomir (antago-135) was intravenously injected at a concentration of 10 μM in 0.1 mL of PBS 4 days after the cells were implanted. An example of a miR-135b antagomir is 5′mU(*)mC(*)mAmCmAmUmAmG-mGmAmAmUmGmAmAmAmAmGmCmC(*)mA(*)mU(*)mA(*)(3′-Ch1)3′ (SEQ ID NO:8). […]

Molecule: Cc1ccc(S(=O)(=O)/C=C/C#N)cc1 [BAY-117082]
TNF-α-stimulated miR-135b expression ([1]; 5 or 10 μM): negated

association of NF-κB with the miR-135b promoter [2]: confirmed
Molecule: TNF-α
miR-135b expression [3]: induced miR-135b expression was also observed
miR-135b expression [1]: induced miR-135b expression was also observed

Molecule: Nc1ncn([C@H]2C[C@H](O)[C@@H](CO)O2)c(=O)n1 [5-aza-2′CdR]
miR-135b expression levels [4]: restored
LEMD1 mRNA expression [5]: restored LEND1 mRNA expression in a dose-dependent manner

B1: miR-135b sponge: miR-135-specific sponge carrying seven repeats of the miR-135b binding site (SEQ ID NO:12) (nucleic acid)
DNA: GTCGACTCACATAGGAACTTAAGCCATAATGCTCACATAGGAACTTAAGCCATAATGCTCACATAGGAACTTAAGCCATAATGCTCACATAGGAACTTAAGCCATAATGCTCACATAGGAACTTAAGCCATAATGCTCACATAGGAACTTAAGCCATAATGCTCACATAGGAACTTAAGCCATAATGTCGAC
invasiveness in transwell invasion assay [6]: diminished the invasive
number of tumor nodules developed in the mouse lungs [7]: significantly reduced
